From patent publication US20210134398A1, “Combinatorial Chemistry Computational System and Enhanced Selection Method” (Southern Methodist University, priority 2019, published 2021)
pIC50: −log10 of the molar value.

Assays:
[1] = biological target: P-gp (P-gp over-expressing cell line, DU145TXR) (Homo sapiens, UniProt P08183); assay: Cellular accumulation of experimental compounds by LC-MS/MS with and without tariquidar
Description: Stimulation of basal ATPase by 29-variants was used as an indicator that a compound may be a P-gp transport substrate. Effects on stimulated P-gp ATPase activity indicated whether a compound directly interfered with ATP usage by the protein (***, p<0.001; **, p<0.01; *, p<0.1; NS, not significant). Quantitative cellular accumulation of 29-variants was performed using LC-MS/MS and is presented as a ratio of the cellular amounts of 29-variants in the presence of P-gp inhibitor, tariquidar, divided by amounts accumulated in its absence. […] Binding of an ATP analog, SL-ATP, to P-gp was used to determine whether ATP binding to P-gp was affected by the 29-variants. Values +/−standard deviations are shown for at least three different P-gp preparations and three independent SL-ATP titration experiments. The values for SL-ATP binding in the presence of 29 were taken directly from Brewer et al. (2014).
Intracellular accumulation of compound 29 variants. Cell accumulation assays for each of the 29 variants were performed as in reference^28 to more directly assess whether the compounds were indeed transport substrates for P-gp.
Cellular Accumulation Assays for Experimental P-gp Inhibitors. Cells used (DU145TXR), cell culturing, cell exposure to compounds, cellular handling and extractions were performed as described in^28. LC-MS/MS methods were performed as described in^71 and as modified in^28.

[2] = tested on: P-gp overexpressing prostate cancer cell line, DU145TXR; assay: MTT cell viability assay, resensitization to paclitaxel; assay type: cell-based, human; settings: Homo sapiens; paclitaxel alone, DU145TXR, 48 hours; read-out: IC50 PTX, PTX alone
Source text: The Group 1 ChemGen/docking routine produced variants of P-gp inhibitor 29 resensitize a multidrug resistant, P-gp overexpressing prostate cancer cell line to paclitaxel. The mitochondrial reduction potential of cells is often used as an indicator for cell viability using MTT assays^4. Using these assays it was observed that the five Group 1 derivatives of 29 predicted through the ChemGen/docking routine and synthesized here, 216, 227, 231, 541 and 551, re-sensitized the P-gp overexpressing prostate cancer cell line, DU145TXR^33, to the chemotherapeutic, paclitaxel (FIG. 12, showing results of assays at concentrations of 3 μM, 5 μM, 7 μM, and 10 μM).
Cytotoxicity of the chemotherapeutic, paclitaxel (PTX) to P-gp overexpressing prostate cancer cells, DU145TXR, was determined in the absence and presence of the ChemGen designed 29-variants, 216, 227, 231, 541 and 551. For each experimental compound IC50 values of PTX alone or in the presence of inhibitors, fold improvement of PTX sensitivity in the presence of inhibitor, and fold improvement of PTX sensitivity by variants compared to parental compound 29 are given.
Effects of Group 2 variants on the paclitaxel sensitivity of P-glycoprotein overexpressing prostate cancer cells, DU145TXR. MTT assays were again used to assess the efficacy of the new structural 29-variants on sensitizing the chemotherapy-resistant prostate cancer cell line, DU145TXR, to paclitaxel, at concentrations of 3 μM, 5 μM, 7 μM, and 10 μM as shown in FIG. 15 and Table 4.
MTT cell viability assay. Cells were trypsinized from monolayers and seeded with 3000 cells in 150 μL of complete medium in a 96 well plate. After 24 hours, cells were treated for 48 hours with paclitaxel (Acros Organics, NJ) and/or P-gp inhibitory compounds dissolved in DMSO, or DMSO controls. All additions were diluted into complete medium. After 48 hours of treatment, MTT assays were performed as described^41 using 5 mg/mL of MTT (Acros Organics, NJ) solution prepared in PBS (137 mM NaCl, 2.7 mM KCl, 10 mM Na2HPO4, 1.8 mM KH2PO4, pH 7.4). After 4 hours of incubation with MTT, the media was removed and the formazan crystals were dissolved in 100 μL of DMSO. The absorbance at 570 nm was then measured using a BioTek Cytation 5 imaging multi-mode reader (Bio-Tek, Winooski, Vt.). Percent viability was calculated using DMSO treated cells as representative for 100% viability, according to Equation 1. Background absorbance was determined using MTT and complete medium without cells and subtracted from all the test values. Equation 1:
The results were plotted as the mean with standard deviation (SD) of eight replicates per concentration from at least two independent experiments with n=8. The graphical representations and IC50 values were determined using four parameter variable slope non-linear regression, using the following equation: Y=bottom+(top-bottom)/(1+10^((log IC50−X)*Hill Slope) (GraphPad Prism™, La Jolla Calif., USA, Version 6.05). The reported “fold sensitization” was calculated as follows, per Equation 2: […]

P-gp (P-gp over-expressing cell line, DU145TXR), sequence (P08183 whole entry): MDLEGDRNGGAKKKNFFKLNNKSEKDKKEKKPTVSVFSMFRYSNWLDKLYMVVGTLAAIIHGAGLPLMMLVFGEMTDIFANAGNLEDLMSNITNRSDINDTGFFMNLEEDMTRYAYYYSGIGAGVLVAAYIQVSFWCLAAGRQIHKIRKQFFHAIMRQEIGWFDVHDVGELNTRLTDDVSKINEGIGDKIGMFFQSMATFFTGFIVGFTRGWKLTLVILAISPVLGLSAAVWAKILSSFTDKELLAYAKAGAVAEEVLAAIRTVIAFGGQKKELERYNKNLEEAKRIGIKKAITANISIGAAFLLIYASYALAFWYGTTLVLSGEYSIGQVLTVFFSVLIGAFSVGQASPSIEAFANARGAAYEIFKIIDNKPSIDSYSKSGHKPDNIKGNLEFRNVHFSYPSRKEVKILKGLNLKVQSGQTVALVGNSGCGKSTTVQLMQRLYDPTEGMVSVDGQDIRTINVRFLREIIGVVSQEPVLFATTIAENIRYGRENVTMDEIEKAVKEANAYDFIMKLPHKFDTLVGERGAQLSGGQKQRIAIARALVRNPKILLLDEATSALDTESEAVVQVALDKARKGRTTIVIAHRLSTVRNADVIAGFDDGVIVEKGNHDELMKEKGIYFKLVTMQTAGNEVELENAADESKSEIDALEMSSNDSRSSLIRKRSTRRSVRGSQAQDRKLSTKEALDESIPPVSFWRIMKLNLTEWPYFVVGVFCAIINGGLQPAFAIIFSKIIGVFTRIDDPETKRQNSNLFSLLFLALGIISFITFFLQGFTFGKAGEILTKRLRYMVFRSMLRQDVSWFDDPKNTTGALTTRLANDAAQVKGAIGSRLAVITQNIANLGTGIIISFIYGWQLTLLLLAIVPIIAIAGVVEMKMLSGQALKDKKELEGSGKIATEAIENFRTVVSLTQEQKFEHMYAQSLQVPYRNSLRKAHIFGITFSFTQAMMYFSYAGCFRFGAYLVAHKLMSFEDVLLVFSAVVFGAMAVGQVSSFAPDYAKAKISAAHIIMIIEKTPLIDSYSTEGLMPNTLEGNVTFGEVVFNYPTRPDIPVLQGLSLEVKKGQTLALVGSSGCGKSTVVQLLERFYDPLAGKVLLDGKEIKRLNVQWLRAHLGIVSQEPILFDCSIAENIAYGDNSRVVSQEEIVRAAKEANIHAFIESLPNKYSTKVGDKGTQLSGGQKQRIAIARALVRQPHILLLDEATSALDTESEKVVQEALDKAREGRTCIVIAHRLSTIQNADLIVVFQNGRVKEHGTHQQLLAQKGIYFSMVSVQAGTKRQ

Structure (SMILES)	Transport substrate for P-gp ([1]; DU145TXR accumulation with/without tariquidar (and basal ATPase))	Intracellular accumulation in absence vs presence of tariquidar (in words) ([1]; DU145TXR, LC-MS/MS)	pIC50 [2]
COc1cccc2c1C(=O)c1c(O)c3c(c(O)c1C2=O)C[C@@](O)(C(C)=O)C[C@@H]3O[C@H]1C[C@H](N)[C@H](O)[C@H](C)O1 [Daunorubicin, reference compound]	good transport substrate for P-gp	very strong cellular accumulation	–
CC(=O)O[C@H]1C(=O)[C@@]2(C)[C@H]([C@H](OC(=O)c3ccccc3)[C@]3(O)C[C@H](OC(=O)[C@H](O)[C@@H](NC(=O)c4ccccc4)c4ccccc4)C(C)=C1C3(C)C)[C@]1(OC(C)=O)CO[C@@H]1C[C@@H]2O [PTX, paclitaxel, reference compound]	–	–	5.67
